Source: the NIST ThermoML archive (doi:10.1021/acs.jced.8b00554)

Test: xn = mol fraction of the nth substance listed
Conditions: Liquid, Vibrating tube method

CCCCCCCCCC [decane] + CCCO
mass density [kg/m3]
Conditions	353.15 K	363.15 K
100 kPa, x2 = 0.1391	–	664.41
100 kPa, x2 = 0.1907	–	663.86
100 kPa, x2 = 0.3001	–	664.03
100 kPa, x2 = 0.4326	–	666.18
100 kPa, x2 = 0.6863	–	680.95
100 kPa, x2 = 0.8711	–	705.01
1000 kPa, x2 = 0.1907	–	665.28
1010 kPa, x2 = 0.1391	–	665.85
1010 kPa, x2 = 0.3001	–	666.15
1010 kPa, x2 = 0.6863	–	682.3
1010 kPa, x2 = 0.8711	–	706.22
1020 kPa, x2 = 0.4326	–	667.3
2000 kPa, x2 = 0.1391	–	667.06
2000 kPa, x2 = 0.1907	–	666.5
2000 kPa, x2 = 0.6863	–	683.55
2000 kPa, x2 = 0.8711	–	707.37
2020 kPa, x2 = 0.3001	–	667.4
2020 kPa, x2 = 0.4326	–	668.51
3000 kPa, x2 = 0.3001	–	668.59
3010 kPa, x2 = 0.1391	–	668.24
3010 kPa, x2 = 0.4326	–	669.77
3010 kPa, x2 = 0.6863	–	684.83
3020 kPa, x2 = 0.1907	–	667.69
3020 kPa, x2 = 0.8711	–	708.57
4010 kPa, x2 = 0.1391	–	669.44
4010 kPa, x2 = 0.1907	–	668.95
4010 kPa, x2 = 0.3001	–	669.83
4010 kPa, x2 = 0.6863	–	686.13
4010 kPa, x2 = 0.8711	–	709.79
4020 kPa, x2 = 0.4326	–	671.06
5000 kPa, x2 = 0.4326	–	672.31
5010 kPa, x2 = 0.1907	–	670.1
5010 kPa, x2 = 0.8711	–	711.06
5020 kPa, x2 = 0.1391	–	670.64
5020 kPa, x2 = 0.3001	–	671.07
5020 kPa, x2 = 0.6863	–	687.44
6010 kPa, x2 = 0.3001	–	672.31
6010 kPa, x2 = 0.8711	–	712.33
6020 kPa, x2 = 0.1391	–	671.83
6020 kPa, x2 = 0.1907	–	671.28
6020 kPa, x2 = 0.4326	–	673.61
6020 kPa, x2 = 0.6863	–	688.73
7010 kPa, x2 = 0.1907	–	672.49
7010 kPa, x2 = 0.6863	–	690.06
7020 kPa, x2 = 0.1391	–	673.03
7020 kPa, x2 = 0.3001	–	673.57
7020 kPa, x2 = 0.4326	–	674.92
7020 kPa, x2 = 0.8711	–	713.62
8000 kPa, x2 = 0.3001	–	674.82
8000 kPa, x2 = 0.4326	–	676.22
8000 kPa, x2 = 0.6863	–	691.39
8010 kPa, x2 = 0.1907	–	673.78
8020 kPa, x2 = 0.1391	–	674.3
8020 kPa, x2 = 0.8711	–	714.86
9000 kPa, x2 = 0.1391	–	675.46
9000 kPa, x2 = 0.3001	–	676.11
9000 kPa, x2 = 0.6863	–	692.72
9010 kPa, x2 = 0.1907	–	675
9010 kPa, x2 = 0.4326	–	677.52
9020 kPa, x2 = 0.8711	–	716.13
10000 kPa, x2 = 0.1391	–	676.67
10000 kPa, x2 = 0.1907	–	676.19
10010 kPa, x2 = 0.3001	690.11	677.41
10010 kPa, x2 = 0.6863	–	694.02
10010 kPa, x2 = 0.8711	731.37	717.4
10020 kPa, x2 = 0.1907	688.55	–
10020 kPa, x2 = 0.4326	–	678.87
11000 kPa, x2 = 0.1391	–	677.93
11000 kPa, x2 = 0.6863	710.38	–
11010 kPa, x2 = 0.3001	691.26	678.66
11010 kPa, x2 = 0.4326	694.72	–
11010 kPa, x2 = 0.6863	–	695.33
11020 kPa, x2 = 0.1391	689.4	–
11020 kPa, x2 = 0.1907	689.66	677.43
11020 kPa, x2 = 0.4326	–	680.14
11020 kPa, x2 = 0.8711	732.51	718.66
12000 kPa, x2 = 0.1391	–	679.09
12000 kPa, x2 = 0.1907	–	678.73
12000 kPa, x2 = 0.3001	–	679.92
12010 kPa, x2 = 0.1391	690.47	–
12010 kPa, x2 = 0.1907	690.83	–
12010 kPa, x2 = 0.4326	695.89	681.46
12010 kPa, x2 = 0.6863	711.53	696.59
12010 kPa, x2 = 0.8711	733.61	719.87
12020 kPa, x2 = 0.3001	692.38	–
13000 kPa, x2 = 0.3001	693.53	–
13000 kPa, x2 = 0.8711	734.68	–
13010 kPa, x2 = 0.1391	691.56	680.3
13010 kPa, x2 = 0.1907	–	679.91
13010 kPa, x2 = 0.3001	–	681.16
13010 kPa, x2 = 0.4326	–	682.71
13010 kPa, x2 = 0.6863	–	697.91
13020 kPa, x2 = 0.1907	691.91	–
13020 kPa, x2 = 0.4326	697.03	–
13020 kPa, x2 = 0.6863	712.69	–
13020 kPa, x2 = 0.8711	–	721.04
14000 kPa, x2 = 0.1907	–	681.11
14000 kPa, x2 = 0.4326	–	683.94
14010 kPa, x2 = 0.1391	–	681.47
14010 kPa, x2 = 0.1907	692.99	–
14010 kPa, x2 = 0.3001	–	682.38
14020 kPa, x2 = 0.1391	692.62	–
14020 kPa, x2 = 0.3001	694.63	–
14020 kPa, x2 = 0.4326	698.13	–
14020 kPa, x2 = 0.6863	713.81	699.14
14020 kPa, x2 = 0.8711	735.8	722.27
15000 kPa, x2 = 0.1907	–	682.24
15000 kPa, x2 = 0.4326	–	685.14
15000 kPa, x2 = 0.6863	–	700.32
15010 kPa, x2 = 0.3001	–	683.55
15010 kPa, x2 = 0.4326	699.22	–
15010 kPa, x2 = 0.6863	714.9	–
15010 kPa, x2 = 0.8711	736.86	723.44
15020 kPa, x2 = 0.1391	693.66	682.58
15020 kPa, x2 = 0.1907	694.05	–
15020 kPa, x2 = 0.3001	695.7	–
16000 kPa, x2 = 0.3001	–	684.7
16000 kPa, x2 = 0.4326	–	686.33
16010 kPa, x2 = 0.1391	694.64	683.66
16010 kPa, x2 = 0.1907	695.08	683.38
16010 kPa, x2 = 0.4326	700.29	–
16010 kPa, x2 = 0.6863	715.98	–
16010 kPa, x2 = 0.8711	–	724.56
16020 kPa, x2 = 0.3001	696.78	–
16020 kPa, x2 = 0.6863	–	701.55
16020 kPa, x2 = 0.8711	737.89	–
17000 kPa, x2 = 0.3001	–	685.86
17000 kPa, x2 = 0.4326	701.32	–
17010 kPa, x2 = 0.1391	–	684.77
17010 kPa, x2 = 0.1907	696.15	684.57
17010 kPa, x2 = 0.3001	697.84	–
17010 kPa, x2 = 0.4326	–	687.43
17010 kPa, x2 = 0.6863	717.03	–
17020 kPa, x2 = 0.1391	695.67	–
17020 kPa, x2 = 0.6863	–	702.7
17020 kPa, x2 = 0.8711	738.93	725.68
18000 kPa, x2 = 0.1391	–	685.82
18000 kPa, x2 = 0.1907	–	685.6
18000 kPa, x2 = 0.3001	–	686.93
18010 kPa, x2 = 0.4326	702.35	–
18010 kPa, x2 = 0.6863	718.05	703.81
18010 kPa, x2 = 0.8711	–	726.78
18020 kPa, x2 = 0.1391	696.65	–
18020 kPa, x2 = 0.1907	697.1	–
18020 kPa, x2 = 0.3001	698.82	–
18020 kPa, x2 = 0.4326	–	688.58
18020 kPa, x2 = 0.8711	739.92	–
19000 kPa, x2 = 0.1391	697.56	686.79
19000 kPa, x2 = 0.4326	–	689.63
19000 kPa, x2 = 0.8711	–	727.82
19010 kPa, x2 = 0.1907	698.02	686.57
19010 kPa, x2 = 0.3001	699.8	687.98
19020 kPa, x2 = 0.4326	703.33	–
19020 kPa, x2 = 0.6863	719.04	704.89
19020 kPa, x2 = 0.8711	740.89	–
20000 kPa, x2 = 0.3001	–	688.93
20000 kPa, x2 = 0.4326	704.33	–
20000 kPa, x2 = 0.6863	720.06	–
20000 kPa, x2 = 0.8711	741.82	728.82
20010 kPa, x2 = 0.1391	698.43	687.72
20010 kPa, x2 = 0.1907	698.94	687.53
20010 kPa, x2 = 0.3001	700.68	–
20010 kPa, x2 = 0.4326	–	690.72
20010 kPa, x2 = 0.6863	–	706
